Measurements from patent US20040023884A1, “Biologically active peptides from functional domains of bactericidal/permeability-increasing protein and uses thereof” (priority 1993, published 2004).
pIC50, pKd: −log10 of the molar value. “Also recorded” adds a separate entry of the source. Ends that are not written are not given here.

Columns and labels:
[1] = test system: RAW 264.7 cells; assay: LPS neutralization cellular proliferation assay, RAW 264.7 cells; format: cell-based, mouse
How it was run: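 Mouse RAW 264.7 cells were primed 24 h with 50U/mL mouse γ-interferon, then exposed about 15 h to E. coli O113 LPS in serum-free RPMI with or without BPI peptides at 25 ng/mL–50 μg/mL. Proliferation was quantified by [^3H]-thymidine uptake, 1 μCi/well, added at 5 h.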

[2] = test system: E. coli 0111:B4 (smooth) bacteria; assay: Radial diffusion bactericidal assay, E. coli 0111:B4; format: cell-based; conditions: radial diffusion; for bactericidal activity (in words): E. coli 0111:B4; for pmol added to well to achieve a 30 mm^2 bactericidal zone, E. coli O111:B4: PROBIT analysis, E. coli O111:B4 (smooth)
[3] = test system: LPS-induced TNF production in whole blood; assay: Inhibition of LPS-induced TNF production in whole blood; format: cell-based; conditions: LPS-induced TNF production in human whole blood, E. coli 0113 LPS, 4 h at 37° C.
Protocol: LPS neutralization by BPI functional domain peptides of the invention was assayed in whole blood as follows. Freshly drawn blood from healthy human donors was collected into vacutainer tubes (ACD, Rutherford, N.J.) Aliquots of blood (170 μL) were mixed with 10 μL Ca^++-, Mg^++-free PBS containing 2.5 ng/mL E. coli 0113 LPS, and with 20 μL of varying concentrations of the BPI peptides of the invention ranging in concentration from 0.5-50 μg/mL. These mixtures were then incubated for 4 h at 37° C., and then the reaction stopped by the addition of 55 μL ice-cold Ca^++-, Mg^++-free PBS, followed by centrifugation at 500×g for 7 min. Supernatants were then assayed for TNF levels using a commercial ELISA kit (Biokine™ ELISA Test, T-cell Sciences, Cambridge. MA).

[4] = Lipid A binding competition with [125I]-rLBP; conditions: for pIC50: read-out: IC50 (inhibition of Lipid A binding of radiolabeled rLBP)
Protocol: A second binding assay was developed, wherein radiolabeled recombinant LPS binding protein ([^125I]-rLBP) was used instead of radiolabeled rBPI23 in competition experiments with BPI functional domain peptides BPI.2, BPI.3, BPI.4, BPI.5, BPI.7, BPI.13, BPI.14, BPI.29, BPI.30 and BPI.48, rBPI, rBPI21Δcys, and rLBP25 were included in these assays as controls. In these experiments, Lipid A was adsorbed to the wells at a concentration of 0.7 μg/mL in methanol. Incubation of radiolabeled rLBP (a total of 650,000 cpm and a specific activity of 3.45 μCi/μg) was performed for 2.5 hr at 37° C. in the presence of BPI peptides in a series of increasing concentrations. IC50 values (i.e., the concentration at which Lipid A binding of radiolabeled rLBP25 is inhibited to one half the value achieved in the absence of the peptide) are shown in accompanying Table XI.

[5] = test system: Klebsiella pneumoniae; assay: Radial diffusion bactericidal assay, Klebsiella pneumoniae; format: cell-based
[6] = 3H-heparin binding assay (affinity and capacity); conditions: for Heparin Capacity: heparin bound at saturation; for pKd: read-out: Heparin Affinity
How it was run: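 Peptide fragments were bound to PVDF-membrane wells and incubated with 3H-heparin in blocking buffer for 1 h at 4 °C. After washing, bound radioactivity was quantified by liquid scintillation counting, with BSA background subtracted; rBPI23 served as positive control.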

[7] = test system: rough mutant E. coli J5 bacteria; assay: Radial diffusion bactericidal assay, E. coli J5; format: cell-based; conditions: for bactericidal activity (in words) / pmol added to well to achieve a 30 mm^2 bactericidal zone, E. coli J5: radial diffusion; for bactericidal activity (in words): E. coli J5; for pmol added to well to achieve a 30 mm^2 bactericidal zone, E. coli J5: PROBIT analysis, E. coli J5 (rough)
How it was run: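 Log-phase bacteria (3 h at 37 °C in tryptic soy broth), washed in 10 mM sodium phosphate pH 7.4, were embedded at 4×10^6 CFU/mL in underlayer agarose. BPI proteolytic fragments (5 or 10 μL) went into 3 mm wells for 3 h at 37 °C, then agarose overlay and overnight 37 °C growth. Clear zones were measured by micrometer.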

[8] = test system: Staphylococcus aureus; assay: Radial diffusion bactericidal assay, Staphylococcus aureus; format: cell-based; conditions: for bactericidal activity (in words): FIG. 10e; for pmol added to well to achieve a 30 mm^2 bactericidal zone, S. aureus: radial diffusion, PROBIT analysis
[9] = FIG. 11c, up to about 2000 pmol

Substance | EC50 (peptide concentration at which the growth inhibitory effect of LPS was reversed by 50%) [1] | bactericidal activity (in words) [2] | pmol added to well to achieve a 30 mm^2 bactericidal zone, E. coli O111:B4 [2] | IC50 TNF assay [3] | IC50 (inhibition of Lipid A binding of radiolabeled rLBP) [4] | pIC50 [4] | bactericidal activity (in words) ([5]; FIG. 10d) | heparin binding capacity (in words) [6] | Heparin Capacity [6] | pKd [6] | bactericidal activity (in words) [7] | pmol added to well to achieve a 30 mm^2 bactericidal zone, E. coli J5 [7] | bactericidal activity (in words) [8] | pmol added to well to achieve a 30 mm^2 bactericidal zone, S. aureus [8] | IC50 (peptide concentration at which RAW cell growth was inhibited by 50%) [1] | heparin binding activity (in words) [6] | bactericidal activity (in words) [5, 9] | concentration above which appreciable bactericidal activity was shown [7]
KWKAQKRFLKKWKAQKRFLK-NH2 (C-terminus assumed) [BPI.7] | >50 µg/mL | exhibited bactericidal activity | 2,072.10 pmol | Not Inhibitory | 0.26 µg/mL | 7.00 | low levels of activity | extremely high heparin binding capacity | 405.6 ng | 6.04 | exhibited bactericidal activity; also recorded: high levels of bactericidal activity; also recorded: highly bactericidal | 175.40 pmol | low levels of activity | 3,769.60 pmol |  |  |  | 
KWKAAARFLKKWKAAARFLK [BPI.48] | 1.3 ± 0.9 µg/mL |  | 253.54 pmol |  | 0.48 µg/mL | 6.70 |  | extremely high heparin capacity | 442.3 ng | 5.85 | highly bactericidal | 42.40 pmol |  | 4,089.14 pmol | 5.0 ± 0.1 µg/mL |  |  | 
IKISGKWKAQKRFLK [BPI.2] |  | exhibited bactericidal activity | b (no detectable activity up to 5 μg/well) |  | 2.36 µg/mL | 5.89 |  | low heparin binding capacity | 203.6 ng | 6.46 |  | 3,001.50 pmol |  | b (no detectable activity up to 5 μg/well) | — (No proliferation decrease up to 50 μg/ml) | little or no heparin binding activity |  | 
KSKVGWLIQLFHKK-NH2 (C-terminus assumed) [BPI.13] | 1.9 ± 0.4 µg/mL |  | 5,857.40 pmol | 42 µg/mL | 1.7 µg/mL | 6.00 | low levels of activity |  | 369.1 ng | 6.01 |  | 440.80 pmol | low levels of activity | 5,341.27 pmol |  |  | showed bactericidal activity | greater than 30 μg/mL
KSKVGWLIQLFHKKKSKVGWLIQLFHKK-NH2 (C-terminus assumed) [BPI.29] | 0.1 ± 0.02 µg/mL |  |  | 5.0 µg/mL | 0.44 µg/mL | 6.89 | moderate levels of activity | extremely high heparin capacity | 463.7 ng | 6.37 | greater bactericidal activity; also recorded: highly bactericidal | 441.60 pmol | moderate levels of activity | 15,508.98 pmol | 13.6 ± 0.4 µg/mL |  |  | 
NVGLKFSISNANIKISGKWKAQKRFLK [BPI.3] |  | exhibited bactericidal activity | b (no detectable activity up to 5 μg/well) |  | 0.75 µg/mL | 6.60 |  |  | 264.5 ng | 6.11 | exhibited bactericidal activity | 695.78 pmol |  |  |  | moderate heparin binding activity |  | 
KWKAQKRFLKKSKVGWLIQLFHKK-NH2 (C-terminus assumed) [BPI.30] | 1.2 ± 1.1 µg/mL |  | 608.20 pmol |  | 0.75 µg/mL | 6.60 | highest amount of bactericidal activity | extremely high heparin capacity | 499.4 ng | 6.23 | highest bactericidal activity; also recorded: highly bactericidal | 76.38 pmol | highest amount of bactericidal activity | 1,216.37 pmol | 10.5 ± 1.2 µg/mL |  | showed bactericidal activity | 
